From patent US20260374782A1, “NEW COMPOUNDS, PROCESSES FOR PREPARING THE SAME AND THEIR USE AS DRUGS” (B&A ONCOMEDICAL, priority 2022, published 2026) come the findings set out here.

The experiment deals with T1, NKCC1 (Homo sapiens, UniProt P55011).
T1 construct: endogenous in cells; host or cells: native HEK293 cells
T1 sequence (P55011 1-1212): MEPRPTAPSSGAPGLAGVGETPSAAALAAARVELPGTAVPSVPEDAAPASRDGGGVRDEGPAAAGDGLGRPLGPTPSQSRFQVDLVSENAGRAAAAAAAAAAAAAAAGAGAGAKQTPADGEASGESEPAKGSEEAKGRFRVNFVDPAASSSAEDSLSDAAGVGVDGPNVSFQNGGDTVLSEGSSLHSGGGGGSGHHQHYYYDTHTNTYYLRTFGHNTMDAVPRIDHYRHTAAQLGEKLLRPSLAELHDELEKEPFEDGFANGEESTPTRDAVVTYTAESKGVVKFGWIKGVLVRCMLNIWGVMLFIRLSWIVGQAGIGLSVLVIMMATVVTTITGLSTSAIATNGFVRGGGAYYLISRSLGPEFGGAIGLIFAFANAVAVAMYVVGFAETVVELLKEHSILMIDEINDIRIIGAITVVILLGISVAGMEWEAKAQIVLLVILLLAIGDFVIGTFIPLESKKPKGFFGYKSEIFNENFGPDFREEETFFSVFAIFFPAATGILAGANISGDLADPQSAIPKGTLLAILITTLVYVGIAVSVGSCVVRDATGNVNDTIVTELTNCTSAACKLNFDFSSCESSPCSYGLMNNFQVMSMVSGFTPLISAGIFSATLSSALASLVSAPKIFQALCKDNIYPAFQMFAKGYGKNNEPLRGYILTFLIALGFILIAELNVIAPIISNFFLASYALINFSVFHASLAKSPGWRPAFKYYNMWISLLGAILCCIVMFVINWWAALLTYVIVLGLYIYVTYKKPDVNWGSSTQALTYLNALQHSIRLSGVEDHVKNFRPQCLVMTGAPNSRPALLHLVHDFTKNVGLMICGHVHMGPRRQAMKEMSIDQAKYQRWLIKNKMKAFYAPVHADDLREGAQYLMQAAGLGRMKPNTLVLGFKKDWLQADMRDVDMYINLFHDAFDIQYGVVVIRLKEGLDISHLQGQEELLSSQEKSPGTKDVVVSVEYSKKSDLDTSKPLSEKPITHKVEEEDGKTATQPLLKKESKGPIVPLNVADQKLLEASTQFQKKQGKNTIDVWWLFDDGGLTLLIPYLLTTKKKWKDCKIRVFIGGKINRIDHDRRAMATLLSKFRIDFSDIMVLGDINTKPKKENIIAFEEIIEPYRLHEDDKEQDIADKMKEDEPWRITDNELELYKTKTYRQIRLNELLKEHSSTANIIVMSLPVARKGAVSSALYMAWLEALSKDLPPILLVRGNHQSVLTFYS
Kind of experiment: NKCC1-mediated K+ influx (83Rb tracer uptake) in native HEK293 cells, hypertonic saline, 100 μM ouabain. Format: cell-based. Conditions: HEK293, no drug = 1000, 20 μM bumetanide = 0; for inhibition at 2 µM: read-out: NKCC1 mediated flux inhibition at 2 μM (%); for inhibition at 20 µM: read-out: NKCC1 mediated flux inhibition at 20 μM (%). In a few lines:
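Native cells in slightly hypertonic saline with 100 μM ouabain; 15 min preincubation then 15 min 83Rb uptake (0.25 μCi/mL), scintillation counting normalized to protein. Compounds at 2 μM and 20 μM; flux scaled 1000 (no drug) to 0 (20 μM bumetanide), triplicate dishes.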

With `CCCCNc1cc(C(=O)O)cc(S(=N)(=O)Nc2ccn(C)n2)c1Oc1ccccc1` (centres unmarked) [Compound 67, 3-(butylamino)-5-[[(1-methylpyrazol-3-yl)amino]sulfonimidoyl]-4-phenoxy-benzoic acid], the inhibition – broadly, the percentage by which the read-out fell short of the control – at 2 µM lay in the range of 50 to 75% and the inhibition at 20 µM was no less than 75%. On to `CCCCNc1cc(C(=O)O)cc(S(=N)(=O)NCc2cncnc2)c1Oc1ccccc1` (centres unmarked) [Compound 68, 3-(butylamino)-4-phenoxy-5-[(pyrimidin-5-ylmethylamino)sulfonimidoyl]benzoic acid], for which the inhibition at 2 µM was 50 to 75% and the inhibition at 20 µM was no less than 75%.

As for `CCCCNc1cc(C(=O)O)cc(S(=N)(=O)N2CC3CCC(C2)O3)c1Oc1ccccc1` (centres unmarked) [Compound 69, 3-(butylamino)-5-(8-oxa-3-azabicyclo[3.2.1]octan-3-ylsulfonimidoyl)-4-phenoxy-benzoic acid], the inhibition at 2 µM is 50 to 75% and the inhibition at 20 µM lay within 50 to 75%.

On to `CCCCNc1cc(C(=O)O)cc(S(=N)(=O)Nc2cccc(Cl)c2)c1Oc1ccccc1` (centres unmarked) [Compound 70, 3-(butylamino)-5-[(3-chloroanilino)sulfonimidoyl]-4-phenoxy-benzoic acid], for which the inhibition at 2 µM was no less than 75% and the inhibition at 20 µM is no less than 75%. On to `CCCCNc1cc(C(=O)O)cc(S(=N)(=O)NCc2cccc(Cl)c2)c1Oc1ccccc1` (centres unmarked) [Compound 71, 3-(butylamino)-5-[[(3-chlorophenyl)methylamino]sulfonimidoyl]-4-phenoxy-benzoic acid], for which the inhibition at 2 µM was no less than 75% and the inhibition at 20 µM is no less than 75%.

As to `CCCCNc1cc(C(=O)O)cc(S(=N)(=O)N2Cc3ccccc3C2)c1Oc1ccccc1` (centres unmarked) [Compound 72, 3-(butylamino)-5-(isoindolin-2-ylsulfonimidoyl)-4-phenoxy-benzoic acid], the inhibition at 2 µM was in the range of 50 to 75% and the inhibition at 20 µM was no less than 75%.

In the case of `CCCCNc1cc(C(=O)O)cc(S(=N)(=O)Nc2cnccn2)c1Oc1ccccc1` (centres unmarked) [Compound 73, 3-(butylamino)-4-phenoxy-5-[(pyrazin-2-ylamino)sulfonimidoyl]benzoic acid], the inhibition at 2 µM is no less than 75% and the inhibition at 20 µM is no less than 75%. For the compound `CCCCNc1cc(C(=O)O)cc(S(=N)(=O)Nc2cccc(OC(F)F)c2)c1Oc1ccccc1` (centres unmarked) [Compound 74, 3-(butylamino)-5-[[3-(difluoromethoxy)anilino]sulfonimidoyl]-4-phenoxy-benzoic acid], the inhibition at 2 µM fell in the range of 50 to 75% and the inhibition at 20 µM was no less than 75%. Take `CCCCNc1cc(C(=O)O)cc(S(=N)(=O)NC2CCOCC2)c1Oc1ccccc1` (centres unmarked) [Compound 75, 3-(butylamino)-4-phenoxy-5-[(tetrahydropyran-4-ylamino)sulfonimidoyl]benzoic acid]: the inhibition at 20 µM is 30 to 50%. On to `CCCCNc1cc(C(=O)O)cc(S(=N)(=O)Nc2ncccn2)c1Oc1ccccc1` (centres unmarked) [Compound 76, 3-(butylamino)-4-phenoxy-5-[(pyrimidin-2-ylamino)sulfonimidoyl]benzoic acid], for which the inhibition at 2 µM is 10 to 30% and the inhibition at 20 µM was in the range of 50 to 75%. For `CCCCNc1cc(C(=O)O)cc(S(=N)(=O)Nc2ccccc2Cl)c1Oc1ccccc1` (centres unmarked) [Compound 77, 3-(butylamino)-5-[(2-chloroanilino)sulfonimidoyl]-4-phenoxy-benzoic acid], in that order: 30 to 50% and no less than 75%. For `CCCCNc1cc(C(=O)O)cc(S(=N)(=O)Nc2ccc(Cl)cc2)c1Oc1ccccc1` (centres unmarked) [Compound 78, 3-(butylamino)-5-[(4-chloroanilino)sulfonimidoyl]-4-phenoxy-benzoic acid], the inhibition at 2 µM lay within 50 to 75% and the inhibition at 20 µM was no less than 75%. The matching figures for `CCCCNc1cc(C(=O)O)cc(S(=N)(=O)NC2CCN(C)CC2)c1Oc1ccccc1` (centres unmarked) [Compound 79, 3-(butylamino)-5-[[(1-methyl-4-piperidyl)amino]sulfonimidoyl]-4-phenoxy-benzoic acid]: 30 to 50% and 50 to 75%.

Take `CCCCNc1cc(C(=O)O)cc(S(=N)(=O)Nc2cncnc2)c1Oc1ccccc1` (centres unmarked) [Compound 80, 3-(butylamino)-4-phenoxy-5-[(pyrimidin-5-ylamino)sulfonimidoyl]benzoic acid]: the inhibition at 2 µM lay within 30 to 50% and the inhibition at 20 µM is no less than 75%. For `CCCCNc1cc(C(=O)O)cc(S(=N)(=O)NCCc2ccccc2)c1Oc1ccccc1` (centres unmarked) [Compound 81, 3-(butylamino)-4-phenoxy-5-[(2-phenylethylamino)sulfonimidoyl]benzoic acid], the inhibition at 2 µM lay in the range of 30 to 50% and the inhibition at 20 µM is no less than 75%.

In the case of `CCCCNc1cc(C(=O)O)cc(S(=N)(=O)NCCc2cccc(Cl)c2)c1Oc1ccccc1` (centres unmarked) [Compound 82, 3-(butylamino)-5-[[2-(3-chlorophenyl)ethylamino]sulfonimidoyl]-4-phenoxy-benzoic acid], the inhibition at 2 µM was in the range of 10 to 30% and the inhibition at 20 µM was no less than 75%. For `CCCCNc1cc(C(=O)O)cc(S(=N)(=O)NCc2cccnc2)c1Oc1ccccc1` (centres unmarked) [Compound 83, 3-(butylamino)-4-phenoxy-5-[(3-pyridylmethylamino)sulfonimidoyl]benzoic acid], in that order: 30 to 50% and no less than 75%. The matching figures for `CCCCNc1cc(C(=O)O)cc(S(=N)(=O)NCCc2cccnc2)c1Oc1ccccc1` (centres unmarked) [Compound 84, 3-(butylamino)-4-phenoxy-5-[[2-(3-pyridyl)ethylamino]sulfonimidoyl]benzoic acid]: 10 to 30% and no less than 75%.

Turning to `CCCCNc1cc(C(=O)O)cc(S(=N)(=O)NCc2nccs2)c1Oc1ccccc1` (centres unmarked) [Compound 85, 3-(butylamino)-4-phenoxy-5-[(thiazol-2-ylmethylamino)sulfonimidoyl]benzoic acid], the inhibition at 2 µM was in the range of 30 to 50% and the inhibition at 20 µM is no less than 75%. Consider `CCCCNc1cc(C(=O)O)cc(S(=N)(=O)NCCc2nccs2)c1Oc1ccccc1` (centres unmarked) [Compound 86, 3-(butylamino)-4-phenoxy-5-[(2-thiazol-2-ylethylamino)sulfonimidoyl]benzoic acid], for which the inhibition at 2 µM lay in the range of 50 to 75% and the inhibition at 20 µM is no less than 75%. For `CCCCNc1cc(C(=O)O)cc(S(=N)(=O)NCc2ccn(C)n2)c1Oc1ccccc1` (centres unmarked) [Compound 87, 3-(butylamino)-5-[[(1-methylpyrazol-3-yl)methylamino]sulfonimidoyl]-4-phenoxy-benzoic acid], in that order: 50 to 75% and no less than 75%.

Turning to `CCCCNc1cc(C(=O)O)cc(S(=N)(=O)Nc2nccn2C)c1Oc1ccccc1` (centres unmarked) [Compound 88, 3-(butylamino)-5-[[(1-methylimidazol-2-yl)amino]sulfonimidoyl]-4-phenoxy-benzoic acid], the inhibition at 20 µM was in the range of 50 to 75%. Take `CCCCNc1cc(C(=O)O)cc(S(=N)(=O)Nc2ccccn2)c1Oc1ccccc1` (centres unmarked) [Compound 89, 3-(butylamino)-4-phenoxy-5-[(2-pyridylamino)sulfonimidoyl]benzoic acid]: the inhibition at 2 µM lay within 30 to 50% and the inhibition at 20 µM is no less than 75%. For `CCCCNc1cc(C(=O)O)cc(S(=N)(=O)Nc2nccs2)c1Oc1ccccc1` (centres unmarked) [Compound 90, 3-(butylamino)-4-phenoxy-5-[(thiazol-2-ylamino)sulfonimidoyl]benzoic acid], in that order: 30 to 50% and no less than 75%. The matching figures for `CCCCNc1cc(C(=O)O)cc(S(=N)(=O)Nc2ccncc2)c1Oc1ccccc1` (centres unmarked) [Compound 91, 3-(butylamino)-4-phenoxy-5-[(4-pyridylamino)sulfonimidoyl]benzoic acid]: 30 to 50% and no less than 75%. `CCCCNc1cc(C(=O)O)cc(S(=N)(=O)NC2CCN(C(C)=O)CC2)c1Oc1ccccc1` (centres unmarked) [Compound 92, 3-[[(1-acetyl-4-piperidyl)amino]sulfonimidoyl]-5-(butylamino)-4-phenoxy-benzoic acid]: the inhibition at 2 µM lay in the range of 10 to 30% and the inhibition at 20 µM was in the range of 50 to 75%.
